Tests used:
[1] = test system: human uterine fibroid cells; settings: in vitro; cited from earlier work
uterine fibroids [2] = settings: animal models; cited from earlier work
[3] = test system: fibronectin release in cultured fibroblasts; assay: Fibronectin release in TGF-β1-stimulated fibroblasts, western blot; assay type: cell-based, human; settings: Phase I; 18 days culture, 24 h TGF-β1 10 ng/ml, then 24 h treatment; vitamin D3 0.005 μg/ml, EGCG 0.03 mg/ml; FIG. 1
Source text: Anti-fibrotic properties of epigallocatechin gallate (EGCG) and vitamin D3 (alone or in combination) have been preliminary tested in human normal fibroblasts in 2D cultures. Human normal fibroblasts used in this experiment are Primary cell cultures. To discard any effect on fibroblast viability, proliferation and apoptosis were also investigated. Fibroblasts culture: DMEM, 10% FBS, 1% L-Glu, 1% Pen/strep for 18 days; Fibroblasts were allowed to grow in the above fibroblast culture for 18 days until reaching 50% confluence. Then, the fibrotic process was fostered by adding 10 ng/ml TGF-β1 (Peprotech, cat no. #100-21-10UG). […]
(§1) Fibronectin and collagen release were both measured in western blot for assessing the anti-fibrotic effect. […]
(§2) Fibronectin and collagen release from fibroblasts were analyzed at 24 hours after addition of EGCG or vitamin D3 in previously stimulated fibroblast, as described above. […]
Data are reported in FIGS. 3 A-B and 4 A-B and expressed as fold-decrease of OD-Units in respect to the control value, which was obtained for fibroblasts after 24 hours of stimulation with TGF-β1 (e.g. a decrease of 50% between two measurements would be referred to a “half-fold change”). Fold change is a measure describing how much a quantity changes between an original and a subsequent measurement. […]

[4] = test system: collagen release in cultured fibroblasts; assay: Collagen release in TGF-β1-stimulated fibroblasts, western blot; assay type: cell-based, human; settings: Phase I, 18 days culture, 24 h TGF-β1 10 ng/ml, then 24 h treatment, vitamin D3 0.005 μg/ml, EGCG 0.03 mg/ml, FIG. 2
Source text: (§3) Anti-fibrotic properties of epigallocatechin gallate (EGCG) and vitamin D3 (alone or in combination) have been preliminary tested in human normal fibroblasts in 2D cultures. Human normal fibroblasts used in this experiment are Primary cell cultures. To discard any effect on fibroblast viability, proliferation and apoptosis were also investigated. Fibroblasts culture: DMEM, 10% FBS, 1% L-Glu, 1% Pen/strep for 18 days; Fibroblasts were allowed to grow in the above fibroblast culture for 18 days until reaching 50% confluence. Then, the fibrotic process was fostered by adding 10 ng/ml TGF-β1 (Peprotech, cat no. #100-21-10UG). 24 hours after addition of TGF-β1, fibroblasts were thoroughly washed with PBS, fresh fibroblast culture medium and the below formulas were added. Fibroblasts were then allowed to grow for an additional 24 hours.
Vitamin D3 (cholecalciferol, CAS-No. 67-97-0): 0.005 μg/ml in DMSO. Vitamin D3 was dissolved in DMSO and after that further dilutions were made in PBS. Essentially, the cells receive the same “dose” of DMSO, this allows a clean comparison of the test. In this case, DMSO 1:10000 was used;
EGCG (GREEN TEA DRY EXTRACT 95% POLYPHENOLS; CAS-No. 84650-60-2): 0.03 mg/ml in H2O;
combined treatment: EGCG 0.03 mg/ml+vitamin D3 0.005 μg/ml;
control: vehicle only (DMSO);
as §1, §2
Data are reported in FIGS. 3 A-B and 4 A-B and expressed as fold-decrease of OD-Units in respect to the control value, which was obtained for fibroblasts after 24 hours of stimulation with TGF-β1 (e.g. a decrease of 50% between two measurements would be referred to a “half-fold change”). Fold change is a measure describing how much a quantity changes between an original and a subsequent measurement. It is defined as the ratio between the two quantities; for quantities A and B, then the fold change of B with respect to A is B/A.

human normal fibroblasts = assay: Fibroblast proliferation, viability and morphology; settings: Phase I; vitamin D3 0.005 μg/ml, EGCG 0.03 mg/ml; data not shown
Source text: as §3

uterine fibroids [5] = settings: women with uterine fibroids after treatment with EGCG; cited from earlier work
uterine fibroid tumors = settings: mice; cited from earlier work

| Compound | uterine fibroid cell proliferation [1] | size of uterine fibroids / uterine fibroid tumor growth (uterine fibroids [2]) | fibronectin release (production) [3] | collagen release (production) [4] | collagen release (production) ([4]; listed as Vitamin D) | fibroblasts proliferation rate (human normal fibroblasts) | fibroblasts viability (human normal fibroblasts) | reduction in the total fibroid volume (uterine fibroids [5]) | apoptosis in human uterine fibroid cells [1] | volume of uterine fibroid tumors (uterine fibroid tumors) |
| --- | --- | --- | --- | --- | --- | --- | --- | --- | --- | --- |
| C=C1/C(=C\C=C2/CCC[C@]3(C)[C@@H]([C@H](C)CCCC(C)(C)O)CC[C@@H]23)C[C@@H](O)C[C@@H]1O [1,25-dihydroxyvitamin D] | inhibits | decreases the size | – | – | – | – | – | – | – | – |
| C=C1CC[C@H](O)C/C1=C/C=C1\CCC[C@]2(C)[C@@H]([C@H](C)CCCC(C)C)CC[C@@H]12 [Vitamin D3, cholecalciferol] | reduces | reduces | slightly increases | significantly reducing | reduces | does not significantly modify | does not significantly modify | – | – | – |
| O=C(O[C@@H]1Cc2c(O)cc(O)cc2O[C@@H]1c1cc(O)c(O)c(O)c1)c1cc(O)c(O)c(O)c1 [EGCG, epigallocatechin gallate] | inhibits proliferation | – | significantly reduces | significantly reduces | – | does not significantly modify | does not significantly modify | 32.6% | induces apoptosis | reduces the volume |

From patent US20220160734A1, “TREATMENT OF FIBROIDS WITH VITAMIN D AND AN AGENT SUCH AS EPIGALLOCATECHIN GALLATE (EGCG)” (LO.LI. PHARMA S.R.L., priority 2019, published 2022)
